Measurements taken from PMC10955127 (Frontiers in Pharmacology, 2024).
Where two headings read alike, the source gives them in different places.

Experiments:
[1] = In vitro skin penetration and metabolism, fresh viable pig skin on static Franz cells
Source text: Fresh viable pig skin (without hot steam treatment, by-product from meat industry) was obtained from a local, commercial butcher (Hammoor, Germany). The back skin was from female pigs (bred from “Dänische Landrasse” (female) and Pietrain (male) pigs, ~130 days old, 100 kg body weight). Pig skin samples were gently dry-shaved and washed with water before use. For the experiment, 2 replicate discs from each of 3 donors were used.
Skin of full-thickness was mounted on static Franz cells with a 4.9 cm² application area. The receptor compartment of the diffusion cell was filled with approx. 5 ml RF (1% BSA, 0.9% NaCl, 0.05% gentamycin sulfate in water), above a magnetic stirrer set to low rotation. […] The experiment was conducted using non-occluded conditions.
The dermal absorption was calculated as the total amount present within epidermis (without the amount in the total SC strips), dermis and RF.

[2] = tested on: Thyroid (TR and TPO only); parameters: method as in ToxCast; conditions: ref ToxCast, cited from earlier work; for Thyroid (TR and TPO only): Experimental Data (call): Tier 0
[3] = at 35°C; ref PubChem or the ECHA database; cited from earlier work
[4] = Fraction unbound in the plasma (Fup); conditions: human
[5] = tested on: H295R cell line; parameters: method as in ToxCast database; conditions: ref ToxCast database, cited from earlier work
[6] = tested on: estrogen receptor; parameters: method as in ToxCast database; conditions: ref ToxCast database, cited from earlier work
[7] = parameters: method as in PubChem or the ECHA database; conditions: at 25°C; ref PubChem or the ECHA database; cited from earlier work
[8] = tested on: THRa; parameters: method as in ToxCast database; conditions: ref ToxCast database; cited from earlier work
[9] = 24.14 mg/kg/day product, 0.5% BSal, 10.5% absorption
[10] = ref PubChem or the ECHA database; cited from earlier work
[11] = parameters: method as in SCCS, 2023a; conditions: frozen human skin, 14C-radio-labelled BSal in a formulation at 0.5%; ref SCCS, 2023a; cited from earlier work
[12] = tested on: estrogen receptor (ER); conditions: cited from earlier work; for Estrogen: Experimental Data (call): Tier 0; for Estrogen: Experimental Data (call) / Estrogen: assays active / assays: ref ToxCast
[13] = tested on: estrogen receptor; parameters: method as in ToxCast database; conditions: ref ToxCast database, cited from earlier work; remark: listed apart in the source
[14] = tested on: thyroid pathway; parameters: method as in ToxCast database; conditions: ref ToxCast database; cited from earlier work
[15] = tested on: TSHR; parameters: method as in ToxCast database; conditions: ref ToxCast database; cited from earlier work
[16] = tested on: H295R cell line; parameters: method as in ToxCast database; conditions: ref ToxCast database, cited from earlier work; remark: listed apart in the source
[17] = tested on: H295R cell line; parameters: method as in ToxCast database; conditions: ref ToxCast database, cited from earlier work; remark: listed apart in the source
[18] = tested on: thyroid pathway; parameters: method as in ToxCast database; conditions: ref ToxCast database; cited from earlier work; remark: listed apart in the source
[19] = tested on: estrogen receptor; parameters: method as in ToxCast database; conditions: ref ToxCast database; cited from earlier work
[20] = ref PubChem or the ECHA database; cited from earlier work; remark: listed apart in the source
[21] = in vitro; type: in vitro ADME
Procedure: […]. Samples were precipitated with an equal volume of acetonitrile containing internal standards (1 μM diazepam, 1 μM griseofulvin, 10 μM diclofenac) and then centrifuged (4800 x g, room temperature, 5 min) before analysis by UHPLC-MS/HRMS.
The amount of compound in the samples was expressed as percentage of remaining compound compared to time point zero (=100%). These percentages were plotted against the corresponding time points. In vitro intrinsic clearance (CLint) and half-life (t1/2) estimates were determined using the rate of precursor disappearance and following formula, based on the well-stirred liver model (Obach 1999):
t1/2 = half-life [min]; k = slope from the linear regression of log [test compound] versus time plot [1/min]
Where CLint = in vitro intrinsic clearance [μl/min/10^6 cells]; t1/2 = half-life [min]; k = slope of the linear regression of log [test compound] versus time plot [1/min]; V = ratio of incubation volume and cell number and fu = unbound fraction in the blood. […]

[22] = tested on: estrogen receptor; parameters: method as in ToxCast database; conditions: ref ToxCast database, cited from earlier work; remark: listed apart in the source
[23] = in vivo; conditions: human
[24] = tested on: Aromatase; parameters: method as in ToxCast database; conditions: ref ToxCast database; cited from earlier work
[25] = tested on: thyroid pathway; parameters: method as in ToxCast database; conditions: ref ToxCast database; cited from earlier work; remark: listed apart in the source
[26] = tested on: estrogen receptor; parameters: method as in ToxCast database; conditions: ref ToxCast database, cited from earlier work; remark: listed apart in the source
[27] = tested on: androgen receptor; parameters: method as in ToxCast database; conditions: ref ToxCast database; cited from earlier work
[28] = tested on: androgen receptor; parameters: method as in ToxCast database; conditions: ref ToxCast database; cited from earlier work; remark: listed apart in the source
[29] = tested on: mice; conditions: KS2; cited from earlier work
[30] = tested on: androgen receptor; parameters: method as in ToxCast database; conditions: ref ToxCast database; cited from earlier work; remark: listed apart in the source
[31] = tested on: androgen receptor (AR); parameters: method as in ToxCast; conditions: ref ToxCast, cited from earlier work
[32] = tested on: androgen receptor; parameters: method as in ToxCast database; conditions: ref ToxCast database; cited from earlier work; remark: listed apart in the source
[33] = parameters: method as in ToxCast database; conditions: ref ToxCast database; cited from earlier work
[34] = tested on: MCF-7 cells; type: cell-based; conditions: 1,000 µM SA or 1 μM trichostatin A, analysis Method 1

## O=Cc1ccccc1 [Benzaldehyde, benzaldehyde]
[1]; 24 h after application of 0.5% BSal in formulation, SA corrected by the amount of SA present in the formulation
  Total recovery: < LOQ*

## O=C(OCc1ccccc1)c1ccccc1O [BSal, benzyl salicylate]
[2]
  Thyroid (TR and TPO only): Experimental Data (call): Negative
  Thyroid (TR and TPO only): assays active / assays: 0/11 active
[3]
  Partition coefficient (Log Pow): 4
[4]
  fraction unbound: 0.0066
[5]
  Steroidogenesis 17alpha-hydroxyprogesterone in H295R cell line: call: Positive
[5]; read-out: Steroidogenesis 17alpha-hydroxyprogesterone in H295R cell line: AC50
  AC50: 54.7 µM
[6]
  Estrogen pathway Dimerisation: Call: Positive
[6]; read-out: Estrogen pathway Dimerisation: AC50
  AC50: 36.5 µM
[7]
  pKa: 9.82
[1]
  Receptor fluid: < LOQ*
[8]
  Thyroid pathway receptor binding (THRa): Call: Negative
[9]
  SED total: 24.14 × 0.5/100 × 10.5/100 = 0.01267 mg/kg/d
[10]
  Vapor pressure: 0.01 Pa
[11]
  Skin absorption: 9.01 % of the applied dose
[12]
  Estrogen: Experimental Data (call): Positive
  Estrogen: assays active / assays: 9 out of 18
[12]; binding assay for ERα, assay name OT_ER_ERaERa_0480, ref ToxCast database, read-out: Lowest reported AC50
  AC50: 36.5 µM
[12]; listed as Benzyl salicylate
  Estrogen: assays active / assays: 9/18 assays active
[13]
  Estrogen pathway Cell Proliferation: Call: Positive
[13]; read-out: Estrogen pathway Cell Proliferation: AC50
  AC50: 85.2 µM
[14]
  Thyroid pathway Reporter protein Agonist: Call: Negative
[15]
  Thyroid pathway Regulation of transcription factor activity (TSHR): Call: Negative
[16]
  Steroidogenesis Progesterone in H295R cell line: call: Positive
[16]; read-out: Steroidogenesis Progesterone in H295R cell line: AC50
  AC50: 43.7 µM
[17]
  Steroidogenesis Corticosterone in H295R cell line: call: Positive
[17]; read-out: Steroidogenesis Corticosterone in H295R cell line: AC50
  AC50: 36.8 µM
[18]
  Thyroid pathway mRNA induction: Call: Negative
[19]
  Estrogen pathway Reporter protein Antagonist: Call: Negative
[20]
  Water solubility: 8800 µg/mL
[21]; after 90, 120, and 240 min
  Initial concentration detected: 0.1%–0.2%
[21]; after 30 min, 20 µM BSal
  Initial concentration remaining: 10%
[21]; both sexes, human, hepatocytes, 20 µM, 0.8 million cells/ml, read-out: Half-life in PHH
  half-life at 20 µM: 9.2 min
[21]; both sexes, human, hepatocytes, PHH, read-out: In vitro intrinsic clearance (CLint, in vitro)
  hepatocyte CLint at 20 µM: 94.2 µL/min/1e6 cells
[22]
  Estrogen pathway Reporter protein Agonist: Call: Positive
[22]; read-out: Estrogen pathway Reporter protein Agonist: AC50
  AC50: 39.2 µM
[23]
  NOAEL: 123 mg/kg/day
[24]
  Steroidogenesis Aromatase: Call: Negative
[25]
  Thyroid pathway Reporter protein Antagonist: Call: Negative
[26]
  Estrogen pathway mRNA induction: Call: Positive
[26]; read-out: Estrogen pathway mRNA induction: AC50
  AC50: 37 µM

## OCc1ccccc1 [BAlc, benzyl alcohol]
[2]
  Thyroid (TR and TPO only): Experimental Data (call): Negative
  Thyroid (TR and TPO only): assays active / assays: 0/12 active
[27]
  Androgen pathway Reporter protein Antagonist: Call: Negative
[6]
  Estrogen pathway Dimerisation: Call: Negative
[1]
  Stratum corneum: < LOQ*
  Surface: < LOQ*
[28]
  Androgen pathway mRNA induction: Call: Negative
[29]
  Developmental Toxicity NOAEL: NOAEL: 200 mg/kg
[10]
  Vapor pressure: 7 Pa
[12]
  Estrogen: Experimental Data (call): Negative
  Estrogen: assays active / assays: 0/18 active
[14]
  Thyroid pathway Reporter protein Agonist: Call: Negative
[15]
  Thyroid pathway Regulation of transcription factor activity (TSHR): Call: Negative
[18]
  Thyroid pathway mRNA induction: Call: Negative
[30]
  Androgen pathway Reporter protein Agonist: Call: Negative
[19]
  Estrogen pathway Reporter protein Antagonist: Call: Negative
[21]; both, human, hepatocytes, 5 µM
  Time within which rapidly metabolized in PHH: ≤ 30 min
[22]
  Estrogen pathway Reporter protein Agonist: Call: Negative
[24]
  Steroidogenesis Aromatase: Call: Negative
[31]; Tier 0
  Androgen: Experimental Data (call): Negative
[31]
  Androgen: assays active / assays: 0/14 active
[25]
  Thyroid pathway Reporter protein Antagonist: Call: Negative
[32]
  Androgen pathway Dimerisation: Call: Negative
[26]
  Estrogen pathway mRNA induction: Call: Negative

## O=C(O)CNC(=O)c1ccccc1 [Hippuric acid, hippuric acid]
[33]
  Result in all 259 ToxCast assays: SA: alerts for developmental toxicity, reproductive toxicity, nephrotoxicity, hepatotoxicity, Hippuric acid: negative in all 259 ToxCast assays
[1]
  Receptor fluid: < LOQ*
  Surface: < LOQ*
[14]
  Thyroid pathway Reporter protein Agonist: Call: Negative
[24]
  Steroidogenesis Aromatase: Call: Negative
[25]
  Thyroid pathway Reporter protein Antagonist: Call: Negative

## CC(/C=C/C(=O)NO)=C\[C@@H](C)C(=O)c1ccc(N(C)C)cc1 [trichostatin A, Trichostatin A]
[34]; 6 h
  Number of genes altered by > 1.5-fold or < -1.5-fold: ~10,000 genes
[34]; 24 h
  Number of genes altered by > 1.5-fold or < -1.5-fold: ~10,000 genes
